Measurements reported in PubChem BioAssay (NCI).
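How tested: cells in 96-well plates exposed to compound for 48 hours at five concentrations. The concentration for full growth arrest is given as TGI.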

How the values were obtained:
Assay in all cases: NCI tumour cell line growth inhibition, 48 h
[1] = test system: SF-295 CNS
[2] = test system: RPMI-8226 leukemia
[3] = test system: OVCAR-5 ovarian
[4] = test system: SN12C renal
[5] = test system: MOLT-4 leukemia
[6] = test system: 786-0 renal
[7] = test system: KM12 colon
[8] = test system: SK-MEL-28 melanoma
[9] = test system: HT29 colon
[10] = test system: HCT-15 colon
[11] = test system: NCI/ADR-RES ovarian
[12] = test system: TK-10 renal
[13] = test system: NCI-H226 lung
[14] = test system: SW-620 colon
[15] = test system: U251 CNS
[16] = test system: PC-3 prostate
[17] = test system: UACC-62 melanoma
[18] = test system: IGROV1 ovarian
[19] = test system: NCI-H522 lung
[20] = test system: OVCAR-3 ovarian
[21] = test system: HOP-62 NSCLC
[22] = test system: SF-539 CNS
[23] = test system: M14 melanoma
[24] = test system: SK-MEL-2 melanoma
[25] = test system: CCRF-CEM leukemia
[26] = test system: HS 578T breast
[27] = test system: SNB-75 CNS
[28] = test system: SK-MEL-5 melanoma
[29] = test system: HCC-2998 colon
[30] = test system: NCI-H23 lung
[31] = test system: SF-268 CNS
[32] = test system: SNB-19 CNS
[33] = test system: ACHN renal
[34] = test system: EKVX NSCLC
[35] = test system: HCT-116 colon
[36] = test system: OVCAR-8 ovarian
[37] = test system: MDA-N
[38] = test system: NCI-H460 lung
[39] = test system: CAKI-1 renal
[40] = test system: A549 NSCLC
[41] = test system: UO-31 renal
[42] = test system: SK-OV-3 ovarian
[43] = test system: MALME-3M melanoma
[44] = test system: OVCAR-4 ovarian
[45] = test system: MDA-MB-231 breast
[46] = test system: K-562 leukemia
[47] = test system: MDA-MB-435
[48] = test system: LOX IMVI melanoma
[49] = test system: BT-549 breast
[50] = test system: SR leukemia
[51] = test system: UACC-257 melanoma

Measured: TGI

Cc1cc(C)c(C2CC(O)C(CO)O2)cc1C (stereo unspecified)
> 100 µM: all assays above
